Measurements: US7608627B2, “6-azaindole compound” (Takeda Pharmaceutical Company Limited, priority 2005, dated 2009)
Counter-ions that a name gives are not always drawn.

Biological target: T1, IKKβ (Homo sapiens, UniProt O14920)
T1 construct: made in house; host or cells: Sf-21 insect cells, recombinant baculovirus BAC-IKKB (pFASTBAC1)
T1 sequence (O14920 1-756): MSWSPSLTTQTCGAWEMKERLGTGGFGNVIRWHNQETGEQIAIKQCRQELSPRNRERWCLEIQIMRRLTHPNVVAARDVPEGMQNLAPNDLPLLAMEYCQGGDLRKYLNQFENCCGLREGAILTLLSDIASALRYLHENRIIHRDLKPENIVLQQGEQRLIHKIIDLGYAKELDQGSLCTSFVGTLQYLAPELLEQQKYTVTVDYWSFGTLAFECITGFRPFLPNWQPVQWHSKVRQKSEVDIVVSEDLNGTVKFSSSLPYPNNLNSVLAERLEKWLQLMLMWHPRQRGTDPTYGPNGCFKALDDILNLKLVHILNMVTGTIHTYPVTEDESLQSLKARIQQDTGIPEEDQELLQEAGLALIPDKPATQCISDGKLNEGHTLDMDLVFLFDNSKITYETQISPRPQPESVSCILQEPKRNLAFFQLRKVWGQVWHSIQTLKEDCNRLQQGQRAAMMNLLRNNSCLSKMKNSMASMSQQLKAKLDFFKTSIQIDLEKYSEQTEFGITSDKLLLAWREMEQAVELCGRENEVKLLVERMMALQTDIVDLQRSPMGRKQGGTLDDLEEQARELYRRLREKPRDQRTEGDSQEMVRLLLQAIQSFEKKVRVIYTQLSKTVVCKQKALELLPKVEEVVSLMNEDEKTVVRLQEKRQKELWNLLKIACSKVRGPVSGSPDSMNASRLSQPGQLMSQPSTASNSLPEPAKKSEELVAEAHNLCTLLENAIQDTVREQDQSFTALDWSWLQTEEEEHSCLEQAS
Assay: Determination of IKKβ inhibitory activity (32P uptake into IκBα substrate)
Assay type: biochemical
Settings: active IKKβ 10 ng, IκBα substrate protein, [γ-32P]ATP, 30° C. for 60 min; 50% inhibition of 32P uptake by the acid insoluble fraction
Description: To a reaction solution (37.5 μl, 25 mM HEPES (pH 7.5), 10 mM magnesium acetate) containing active IKKβ (10 ng) obtained in Reference Example 3A and 2.5 μg of IκBα substrate protein solution was added a test compound (2.5 μl) dissolved in DMSO, and the mixture was incubated at 30° C. for 5 min. To the obtained mixture was added 10 μl of ATP solution (2.5 μM ATP, 0.01 μCi [γ-^32P]ATP) and the mixture was allowed to react at 30° C. for 60 min. Then 20% TCA solution (50 μl) was added thereto to stop the reaction. The reaction solution was left standing at 4° C. for 20 min. and acid insoluble fraction was transferred to a GF/C filter (PACKARD JAPAN KK) using a cell harvester (PACKARD JAPAN KK) and washed with 250 mM phosphoric acid solution. The plate after washing was dried at 45° C. for 60 min., 40 μl of MicroSinti 0 (PACKARD JAPAN KK) was added and the radioactivity was determined using TopCount (PACKARD JAPAN KK). The concentration (IC50) of the test compound necessary for 50% inhibition of the amount of ^32P uptake by the acid insoluble fraction was calculated using PRISM 3.0 (GraphPad Software, Inc.).

| SMILES | IC50 [nM] |
| --- | --- |
| c1ccc(C(=NOC2CCNC2)c2cc3ccncc3[nH]2)cc1 (stereo not shown) [Example 91, Phenyl (1H-pyrrolo[2,3-c]pyridin-2-yl)methanone O-pyrrolidin-3-yloxime dihydrochloride] | 1700 |

Test system: not given
Assay: not given
Settings: not given

| SMILES | melting point |
| --- | --- |
| O=C(NC(c1ccccc1)c1cc2ccncc2[nH]1)c1cccnc1 (stereo not shown) [Example 43, N-[Phenyl(1H-pyrrolo[2,3-c]pyridin-2-yl)methyl]nicotinamide] | 178 to 188 °C |
| OC(c1ccccc1)c1cc2ccnc(N(Cc3ccccc3)Cc3ccccc3)c2[nH]1 (stereo not shown) [Example 46, [7-(Dibenzylamino)-1H-pyrrolo[2,3-c]pyridin-2-yl](phenyl)methanol] | 53 to 61 °C |
| O=C(c1ccccc1)c1cc2ccnc(N(Cc3ccccc3)Cc3ccccc3)c2[nH]1 [Example 47, [7-(Dibenzylamino)-1H-pyrrolo[2,3-c]pyridin-2-yl](phenyl)methanone] | 122 to 124 °C |
| O=C(NC(c1ccccc1)c1cc2ccncc2[nH]1)c1ccncc1 (stereo not shown) [Example 49, N-[Phenyl (1H-pyrrolo[2,3-c]pyridin-2-yl)methyl]isonicotinamide] | 182 to 192 °C |
| O=C(NC(c1ccccc1)c1cc2ccncc2[nH]1)c1ccccn1 (stereo not shown) [Example 50, N-[Phenyl (1H-pyrrolo[2,3-c]pyridin-2-yl)methyl]-2-pyridinecarboxamide] | 102 to 110 °C |
| O=C(NC(c1ccccc1)c1cc2ccncc2[nH]1)c1ccccc1 (stereo not shown) [Example 51, N-[Phenyl(1H-pyrrolo[2,3-c]pyridin-2-yl)methyl]benzamide] | 206 to 208 °C |
| OC(c1ccccc1)c1cc2ccncc2[nH]1 (stereo not shown) [Example 52, Phenyl(1H-pyrrolo[2,3-c]pyridin-2-yl)methanol] | 178 to 180 °C |
| CC(C)(C)OC(=O)CO/N=C(\c1ccccc1)c1cc2ccncc2[nH]1 [Example 58, tert-Butyl[[[phenyl(1H-pyrrolo[2,3-c]pyridin-2-yl)methylene]amino]oxy]acetate] | 47 to 52 °C |
| CC(C)(C)OC(=O)NCCO/N=C(\c1ccccc1)c1cc2ccncc2[nH]1 [Example 60, tert-Butyl 2-[[[phenyl(1H-pyrrolo[2,3-c]pyridin-2-yl)methylene]amino]oxy]ethylcarbamate] | 84 to 88 °C |
| O=C(O)CO/N=C(\c1ccccc1)c1cc2ccncc2[nH]1 [Example 66, [[[Phenyl(1H-pyrrolo[2,3-c]pyridin-2-yl)methylene]amino]oxy]acetic acid] | 68 to 73 °C |
| Cl.NCCO/N=C(\c1ccccc1)c1cc2ccncc2[nH]1 [Example 67] | 176 to 184 °C (dec.) |
| CC(=O)c1cc2ccncc2[nH]1 [Example 70, 1-(1H-Pyrrolo[2,3-c]pyridin-2-yl)ethanone] | 236 to 242 °C (dec.) |
| O=C(c1ccccc1)c1cc2cc(Cl)ncc2[nH]1 [Example 73, (5-Chloro-1H-pyrrolo[2,3-c]pyridin-2-yl)(phenyl)methanone] | 194 to 197 °C |
| CC(C)(C)OC(=O)NCCCO/N=C(\c1ccccc1)c1cc2ccncc2[nH]1 [Example 76, tert-Butyl 3-[[[phenyl(1H-pyrrolo[2,3-c]pyridin-2-yl)methylene]amino]oxy]propylcarbamate] | 52 to 58 °C |
| CC(C)C(O)c1cc2ccncc2[nH]1 (stereo not shown) [Example 78, 2-Methyl-1-(1H-pyrrolo[2,3-c]pyridin-2-yl)-1-propanol] | 140 to 144 °C |
| CC(C)CC(O)c1cc2ccncc2[nH]1 (stereo not shown) [Example 79, 3-Methyl-1-(1H-pyrrolo[2,3-c]pyridin-2-yl)-1-butanol] | 182 to 189 °C (dec.) |
| CC(C)C(=O)c1cc2ccncc2[nH]1 [Example 80, 2-Methyl-1-(1H-pyrrolo[2,3-c]pyridin-2-yl)-1-propanone] | 224 to 228 °C |
| CC(C)CC(=O)c1cc2ccncc2[nH]1 [Example 81, 3-Methyl-1-(1H-pyrrolo[2,3-c]pyridin-2-yl)-1-butanone] | 215 to 218 °C |

| SMILES | melting point |
| --- | --- |
| OC(CCc1ccccc1)c1cc2ccncc2[nH]1 (stereo not shown) [Example 83, 3-Phenyl-1-(1H-pyrrolo[2,3-c]pyridin-2-yl)propan-1-ol] | 162 to 166 °C |
| OC(Cc1ccccc1)c1cc2ccncc2[nH]1 (stereo not shown) [Example 85, 2-Phenyl-1-(1H-pyrrolo[2,3-c]pyridin-2-yl)ethanol] | 169 to 172 °C (dec.) |
| O=C(CCc1ccccc1)c1cc2ccncc2[nH]1 [Example 89, 3-Phenyl-1-(1H-pyrrolo[2,3-c]pyridin-2-yl)propan-1-one] | 246 to 250 °C |
| CC(C)(C)OC(=O)N1CCC(ON=C(c2ccccc2)c2cc3ccncc3[nH]2)C1 (stereo not shown) [Example 90, tert-Butyl 3-[[[phenyl(1H-pyrrolo[2,3-c]pyridin-2-yl)methylene]amino]oxy]pyrrolidine-1-carboxylate] | 80 to 82 °C |
| Cl.NCCO/N=C(\c1ccccc1)c1cc2ccncc2[nH]1 [Example 95] | 161 to 165 °C (dec.) |
| Cc1ccc(C(O)c2cc3ccncc3[nH]2)cc1 (stereo not shown) [Example 98, (4-Methylphenyl)(1H-pyrrolo[2,3-c]pyridin-2-yl)methanol] | 78 to 82 °C |
| COc1ccc(C(O)c2cc3ccncc3[nH]2)cc1 (stereo not shown) [Example 99, (4-Methoxyphenyl)(1H-pyrrolo[2,3-c]pyridin-2-yl)methanol] | 183 to 185 °C (dec.) |
| Cc1ccc(C(=O)c2cc3ccncc3[nH]2)cc1 [Example 100, (4-Methylphenyl)(1H-pyrrolo[2,3-c]pyridin-2-yl)methanone] | 264 to 268 °C (dec.) |
| OC(c1ccc(Cl)cc1)c1cc2ccncc2[nH]1 (stereo not shown) [Example 101, (4-Chlorophenyl)(1H-pyrrolo[2,3-c]pyridin-2-yl)methanol] | 176 to 180 °C |
| COc1ccc(C(=O)c2cc3ccncc3[nH]2)cc1 [Example 102, (4-Methoxyphenyl)(1H-pyrrolo[2,3-c]pyridin-2-yl)methanone] | 225 to 228 °C |
| O=C(c1ccc(Cl)cc1)c1cc2ccncc2[nH]1 [Example 103, (4-Chlorophenyl)(1H-pyrrolo[2,3-c]pyridin-2-yl)methanone] | 274 to 277 °C (dec.) |
| OC(c1ccc(Cl)c(Cl)c1)c1cc2ccncc2[nH]1 (stereo not shown) [Example 113, (3,4-Dichlorophenyl)(1H-pyrrolo[2,3-c]pyridin-2-yl)methanol] | 264 to 266 °C (dec.) |
| OC(c1ccccn1)c1cc2ccncc2[nH]1 (stereo not shown) [Example 117, (Pyridin-2-yl)(1H-pyrrolo[2,3-c]pyridin-2-yl)methanol] | 166 to 169 °C |
| CON=C(c1ccccc1)c1cc2ccncc2[nH]1.Cl [Example 120] | 202 to 203 °C |
| CON=C(c1ccccc1)c1cc2ccncc2[nH]1.Cl [Example 121] | 220 to 222 °C |
| O=C(c1ccccn1)c1cc2ccncc2[nH]1 [Example 122, (Pyridin-2-yl)(1H-pyrrolo[2,3-c]pyridin-2-yl)methanone] | 219 to 222 °C |
| O=C(c1ccc(Cl)c(Cl)c1)c1cc2ccncc2[nH]1 [Example 127, (3,4-Dichlorophenyl)(1H-pyrrolo[2,3-c]pyridin-2-yl)methanone] | 274 to 277 °C (dec.) |
| O=C(c1ccoc1)c1cc2ccncc2[nH]1 [Example 137, 3-Furyl(1H-pyrrolo[2,3-c]pyridin-2-yl)methanone] | 232 to 236 °C (dec.) |
